Laboratory results as given in ChEMBL document CHEMBL5113482, “Discovery of fused benzimidazole-imidazole autophagic flux inhibitors for treatment of triple-negative breast cancer” (Eur J Med Chem, 2022).

How the values were obtained:
MDA-MB-231 = test: Antiproliferative activity against human MDA-MB-231 cells assessed as cell growth inhibition measured after 48 hrs by MTT assay; format: functional, cell-based; details: MDA-MB-231, 48 h
MDA-MB-468 = test: Antiproliferative activity against human MDA-MB-468 cells assessed as cell growth inhibition measured after 48 hrs by MTT assay; format: functional, cell-based; details: MDA-MB-468, 48 h

With O=c1[nH]cc(F)c(=O)[nH]1 [FLUOROURACIL] the IC50 (MDA-MB-231) was 26.7 µM and the IC50 (MDA-MB-468) was > 200 µM.
N#Cc1ccccc1NC(=O)c1[nH]cnc1-c1nc2ccccc2[nH]1 showed an IC50 (MDA-MB-231) of 34.2 µM.
O=C(c1[nH]cnc1-c1nc2ccccc2[nH]1)N1CCOCC1 was tested, and the IC50 (MDA-MB-231) was > 40 µM.
In the case of O=C(NC1CC1)c1[nH]cnc1-c1nc2ccccc2[nH]1, the IC50 (MDA-MB-231) is reported as 35.2 µM.
With Cn1cnc(-c2nc3ccccc3n2C)c1C(=O)NC1CCCCC1 the IC50 (MDA-MB-231) was > 40 µM.
With O=C(NC1CCCCCC1)c1[nH]cnc1-c1nc2ccccc2[nH]1 the IC50 (MDA-MB-231) was > 40 µM.
O=C(NC1CCC1)c1[nH]cnc1-c1nc2ccccc2[nH]1 gave an IC50 (MDA-MB-231) of 33.8 µM.
With O=C(Nc1cccc2ccccc12)c1[nH]cnc1-c1nc2ccccc2[nH]1 the IC50 (MDA-MB-231) was 34.8 µM.
For O=C(NCC1CC1)c1[nH]cnc1-c1nc2ccccc2[nH]1, the IC50 (MDA-MB-231) was 33.1 µM.
Compound Cn1c(-c2nc[nH]c2C(=O)NC2CCCCC2)nc2ccccc21 has an IC50 (MDA-MB-231) of 36.8 µM.
O=C(NCc1cccs1)c1[nH]cnc1-c1nc2ccccc2[nH]1 was tested, and the IC50 (MDA-MB-231) was 35.1 µM.
N#Cc1cccc(NC(=O)c2[nH]cnc2-c2nc3ccccc3[nH]2)c1 gave an IC50 (MDA-MB-231) of 24.9 µM.
In the case of CC(C)(C)NC(=O)c1[nH]cnc1-c1nc2ccccc2[nH]1, the IC50 (MDA-MB-231) is reported as > 40 µM.
O=C(NCc1ccco1)c1[nH]cnc1-c1nc2ccccc2[nH]1 was tested, and the IC50 (MDA-MB-231) was 22.2 µM.
For O=C(NC1CCCC1)c1[nH]cnc1-c1nc2ccccc2[nH]1, the IC50 (MDA-MB-231) was 20.6 µM.
For Cc1cc2nc(-c3nc[nH]c3C(=O)NC3CCCCC3)[nH]c2cc1C, the IC50 (MDA-MB-231) was 35.6 µM.
